Results published in patent US11019820B2 (BASF SE, priority 2013, dated 2021).

Key:
Format in all cases: in vivo
[1] = tested on: Myzus persicae; test: Green peach aphid (Myzus persicae) systemic artificial diet test; conditions: 72 h, read-out: mortality in comparison with untreated controls (aphid mortality)
Description: For evaluating control of green peach aphid (Myzus persicae) through systemic means the test unit consisted of 96-well-microtiter plates containing liquid artificial diet under an artificial membrane.
The compounds were formulated using a solution containing 75% v/v water and 25% v/v DMSO. Different concentrations of formulated compounds were pipetted into the aphid diet, using a custom built pipetter, at two replications.
After application, 5-8 adult aphids were placed on the artificial membrane inside the microtiter plate wells. The aphids were then allowed to suck on the treated aphid diet and incubated at about 23±1° C. and about 50±5% relative humidity for 3 days. Aphid mortality and fecundity was then visually assessed.

[2] = tested on: Tetranychus spp; test: Spider mite (Tetranychus spp) potted cotton plant spray test; conditions: sprayed potted cotton plants, 72 hours after treatment, read-out: mortality in comparison with untreated controls
Protocol: The active compound is dissolved at the desired concentration in a mixture of 1:1 (vol:vol) distilled water:acetone. The test solution is prepared at the day of use. Potted cotton plants at two weeks of age were cleaned, air dried and inoculated with approximately 50 mites of various stages. The potted plants are sprayed after the pest population has been recorded. Percent mortality is recorded 72 hours after treatment.

[3] = tested on: Megoura viciae; test: Vetch aphid (Megoura viciae) leaf disk test; conditions: foliar, 120 h, read-out: mortality in comparison with untreated controls (aphid mortality)
Protocol: For evaluating control of vetch aphid (Megoura viciae) through contact or systemic means the test unit consisted of 24-well-microtiter plates containing broad bean leaf disks.
The compounds were formulated using a solution containing 75% v/v water and 25% v/v DMSO. Different concentrations of formulated compounds were sprayed onto the leaf disks at 2.5 μl, using a custom built micro atomizer, at two replications.
After application, the leaf disks were air-dried and 5-8 adult aphids placed on the leaf disks inside the microtiter plate wells. The aphids were then allowed to suck on the treated leaf disks and incubated at about 23±1° C. and about 50±5% relative humidity for 5 days. Aphid mortality and fecundity was then visually assessed.

[4] = tested on: Dichromothrips corbetti; test: Orchid thrips (Dichromothrips corbetti) floral-immersion test; conditions: 72 h, read-out: mortality in comparison with untreated controls
Protocol: Dichromothrips corbetti adults used for bioassay were obtained from a colony maintained continuously under laboratory conditions. For testing purposes, the test compound is diluted in a 1:1 mixture of acetone:water (vol:vol), plus 0.01% vol/vol Alkannuls® EL 620 surfactant.
Thrips potency of each compound was evaluated by using a floral-immersion technique. Plastic petri dishes were used as test arenas. All petals of individual, intact orchid flowers were dipped into treatment solution and allowed to dry. Treated flowers were placed into individual petri dishes along with about 20 adult thrips. The petri dishes were then covered with lids. All test arenas were held under continuous light and a temperature of about 28° C. for duration of the assay. After 3 days, the numbers of live thrips were counted on each flower, and along inner walls of each petri dish. The percent mortality was recorded 72 hours after treatment.

[5] = tested on: Nephotettix virescens; test: Rice green leafhopper (Nephotettix virescens) rice seedling spray test; conditions: 72 h, read-out: mortality in comparison with untreated controls
Protocol: (§1) Rice seedlings were cleaned and washed 24 hours before spraying. The active compounds were formulated in 50:50 acetone:water (vol:vol), and 0.1% vol/vol surfactant (EL 620) was added. Potted rice seedlings were sprayed with 5 ml test solution, air dried, placed in cages and inoculated with 10 adults. Treated rice plants were kept at about 28-29° C. and relative humidity of about 50-60%. Percent mortality was recorded after 72 hours.

[6] = tested on: Nilaparvata lugens; test: Rice brown plant hopper (Nilaparvata lugens) rice seedling spray test; conditions: 72 h, read-out: mortality in comparison with untreated controls
Protocol: as §1, with “(vol:vol)” for “(vol:vol),”

CC[n+]1c([O-])c(-c2ccccc2)c(=O)n2c1CCCC2c1ccc(Cl)nc1 (stereo not shown) [Compound C-9]
> 75%: mortality at 2500 ppm [1] | mortality at 500 ppm [2] | mortality at 2500 ppm [3]

Cn1c2[n+](c([O-])c(-c3ccccc3)c1=O)[C@@H](c1cnc(Cl)s1)CC2 [Compound C-42]
> 75%: mortality at 500 ppm [4] | mortality at 500 ppm [5] | mortality at 500 ppm [6] | mortality at 500 ppm [2]
